Data taken from patent publication US9789116B2, “Compositions and methods of modulating short-chain dehydrogenase activity” (CASE WESTERN RESERVE UNIVERSITY, priority 2013, dated 2017).

Tests used:
lethally irradiated mice = assay: Homing of CFSE dye labeled bone marrow cells in lethally irradiated mice; format: in vivo, mouse
Description: Drugs are administered following radiation, following the transplant, and again at 8 hours after the transplant.

recombinant 15-PGDH [1] = molecular target: T1, recombinant 15-PGDH (Homo sapiens (Human), UniProt P15428); assay: Inhibition of enzymatic activity of recombinant 15-PGDH in vitro (NADH generation); format: biochemical
T1 sequence (P15428 whole entry): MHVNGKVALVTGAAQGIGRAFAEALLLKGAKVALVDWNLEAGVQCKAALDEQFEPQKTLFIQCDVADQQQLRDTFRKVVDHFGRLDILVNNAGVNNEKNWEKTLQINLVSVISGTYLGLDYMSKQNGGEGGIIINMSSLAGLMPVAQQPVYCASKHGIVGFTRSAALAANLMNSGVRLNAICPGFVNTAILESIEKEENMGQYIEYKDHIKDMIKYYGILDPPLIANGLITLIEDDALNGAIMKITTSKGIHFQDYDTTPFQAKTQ

15-PGDH mRNA = 15-PGDH mRNA levels in colon cancer cell lines by real-time PCR; format: cell-based; settings: treated colon cancer cell lines, real-time PCR
Excerpt: In these studies parental cell lines (not containing the 15-PGDH-luciferase reporter) are employed.

[2] = system: 15-PGDH-luciferase fusion reporter in V9m, LS174T and V503 cells; assay: 15-PGDH-luciferase fusion gene reporter induction in colon cancer cell lines; format: cell-based; settings: for luciferase activity of 15-PGDH luciferase fusion cells: V9m, LS174T, V503, various concentrations
A549 cells [3] = assay: PGE2 levels in medium of IL1-beta stimulated A549 cells; format: cell-based; settings: for PGE2 induction compared with SW033291: 4 nM to 2500 nM
recombinant 15-PGDH [4] = molecular target: T1, recombinant 15-PGDH; assay: Melting temperature shift of recombinant 15-PGDH (SYPRO Orange); format: binding
[5] = Chemical stability in aqueous solutions; format: physicochemical; settings: over broad pH range
[6] = system: mouse tissues (colon, bone marrow, liver, lung); assay: PGE2 in mouse tissues after IP injection; format: in vivo
Description: Shown is measurement by Elisa of PGE2 (ng PGE2/mg of tissue protein) from 4 mouse tissues: lung, liver, colon and bone marrow. […] Tissues were harvested for PGE2 assay at either 2 hour (2 h) or 3 hour (3 h) time points following drug injection.

mice = assay: Immediate toxicity in mice; format: in vivo; settings: over 24 hours, IP 50 mg/kg body weight
[7] = Stability with liver extracts; format: in vitro ADME; settings: incubated with mouse, rat and human liver extracts
Solubility in water = format: physicochemical; settings: pH=3
[8] = system: wild-type mouse bone marrow; assay: Hematopoietic colonies from bone marrow treated ex vivo; format: cell-based; settings: 1 uM, ex vivo on ice 2 hours; compared with SW033291
Excerpt: Treated marrow is again then plated into methylcellulose for counting of hematopoietic colonies.

A549 cells [9] = assay: Cellular toxicity on A549 cells by CellTiter-Glo; format: cell-based; settings: 24 hours, concentrations of up to 10 μM
Description: FIGS. 38(A-C) show assays of cellular toxicity on A549 cells at 24 hours of 15-PGDH inhibitors as assayed by CellTiter-Glo measurement.

cell culture = assay: Toxicity in a cell culture assay (decrease of cell numbers); format: cell-based; settings: concentration needed to decrease cell numbers in a cell culture assay
Description: (§1) Time to inhibition refers to the time needed to inhibit the generation of NADH by 15-PGDH from the moment with drug is added into the reaction mix. Delta Tm refers to the shift in melting temperature of recombinant 15-PGDH in the presence of drug (with cofactor NADH also present). Concentration of Full Cell Line Reporter Induction refers to the concentration of drug that needs to be added to reporter cell line to achieve maximal induction of the 15-PGDH-luciferase gene fusion reporter cassette, as measured by luciferase assays. Hepatocyte stability refers to the half-life of compound in the presence of hepatocytes in culture. Toxicity refers to the concentration of compound needed to decrease cell numbers in a cell culture assay.

Hepatocyte stability = format: in vitro ADME; settings: hepatocytes in culture; read-out: Hepatocyte stability T½
Description: as §1

With `COc1ccc2c(c1)c(CC(=O)O)c(C)n2C(=O)c1ccc(Cl)cc1` [indomethacin, reference compound] the “effect of SW033291 on homing in presence of COX inhibitor” value (lethally irradiated mice; SW033291 10 mg/kg IP plus Indomethacin) was “near completely blocked”.

Compound `CC(=O)OCCCCS(=O)(=O)c1sc2nc(-c3cccs3)cc(-c3ccccc3)c2c1N` [SW209128, 4-((3-amino-4-phenyl-6-(thiophen-2-yl)thieno[2,3-b]pyridin-2-yl)sulfonyl)butyl acetate] has an IC50 (recombinant 15-PGDH [1]; read-out: Enzyme Inhibitor IC50 (nM) at 5 nM 15-PGDH, 5 nM recombinant human 15-PGDH) of 4910 nM.

For `O=C(c1ccc2nc(-c3ccccc3)c(-c3ccccc3)nc2c1)N1CCCCC1` [SW145753], the “15-PGDH mRNA levels” value (15-PGDH mRNA) was “do not in general alter 15-PGDH mRNA levels”, the “luciferase activity of 15-PGDH luciferase fusion cells” value [2] was “increase luciferase activity” and the “15-PGDH activity in cells as reflected in PGE2 levels in medium” value (A549 cells [3]; IL1-beta 23 hours, compound added for the last 5 hours) was “clear inhibition of 15-PGDH activity in the cells”.

With `CCCC[S+]([O-])c1sc2nc(-c3nccs3)cc(-c3nccs3)c2c1N` (centres unmarked) [SW209124, 2-(butylsulfinyl)-4,6-di(thiazol-2-yl)thieno[2,3-b]pyridin-3-amine] the “PGE2 induction compared with SW033291” value (A549 cells [3]) was “increased activity relative to SW033291”.

In the case of `CCCC[S@](C)(O)c1sc2nc(-c3cccs3)cc(-c3ccccc3)c2c1N` [SW033291 isomer B], the melting temperature (recombinant 15-PGDH [4]; Differential Scanning Fluorimetry, shifted from 50.5° C.) is reported as 68 °C, the “concentration at which some residual activity is seen” value ([2]; V9M, printed 'isomer B', context suggests isomer A) is reported as 3.2 µM and the “concentration giving full activity in reporter” value ([2]; Vaco-9M (V9M)) is reported as 0.1 µM. The “IC50 lower than parent racemic mixture” value (recombinant 15-PGDH [1]) was 40%.

For `CCCC[S+]([O-])c1sc2nc(-c3nccs3)cc(-c3cnc(C)n3C)c2c1N` (centres unmarked) [formula (XIII)], the “chemical stability in aqueous solutions” value [5] was “chemically stable”, the “PGE2 levels in colon, lung, liver and bone marrow” value ([6]; IP dose of 10 mg/kg body weight) was “elevates PGE2 levels” and the “concentration inhibiting recombinant 15-PGDH” value (recombinant 15-PGDH [1]; enzyme concentration approximately 6 nM) was 3 nM. The immediate toxicity (mice) was “no immediate toxicity”, the “homing of hematopoietic stem cells following bone marrow transplantation” value (lethally irradiated mice; 10 mg/kg body weight) was “increases homing” and the “chemical stability with liver extracts” value [7] was “chemically stable”. For the same compound, the solubility (Solubility in water) was 1000 µg/mL.

With `CCCCC(C)(C)[C@H](O)/C=C/[C@H]1[C@H](O)CC(=O)[C@@H]1C/C=C\CCCC(=O)O` [dmPGE2, 16,16-dimethyl PGE2] the “increase in number of bone marrow derived colonies” value [8] was “slightly greater increase”.

For (+) SW209415, the “time of peak PGE2” value ([6]; IP 0.5, 1.5 or 5 mg/kg) was 3 h and the “induction of PGE2 in lung, liver, colon and bone marrow” value ([6]; IP 0.5, 1.5 or 5 mg/kg, 2 h and 3 h) was “induction of PGE2 in all 4 tissues tested”.

In the case of `CCCC[S+]([O-])c1sc2nc(-c3nccs3)ccc2c1N` (centres unmarked) [SW206992], the melting temperature (recombinant 15-PGDH [4]; 10 μM protein, 20 uM compound, 100 μM NAD(+), control 49) is reported as 59 degrees, the “exposure needed for maximal reporter induction” value ([2]; 24 hours, three cell line backgrounds) is reported as at least 1000 nM and the “Concentration for Full Cell Line Reporter Induction” value ([2]; maximal induction of 15-PGDH-luciferase reporter) is reported as over 1 µM. The “effect on CellTitre-Glo levels” value (A549 cells [9]) was “No effect”, the “Time to inhibition (10 nM)” value (recombinant 15-PGDH [1]; time needed to inhibit generation of NADH by 15-PGDH after drug is added) was about 2 min and the Toxicity (cell culture) was over 7.5 µM.

In the case of `COc1ccc(OC)c(N(CC(=O)Nc2cccnc2)S(=O)(=O)c2ccccc2)c1` [SW054384], the “15-PGDH mRNA levels” value (15-PGDH mRNA) is reported as “do not in general alter 15-PGDH mRNA levels”, the “direct binding to 15-PGDH by melting temperature shift” value (recombinant 15-PGDH [4]; 10 μM and 100 μM cofactor (NAD, NADH)) is reported as “cannot be demonstrated to bind 15-PGDH” and the “luciferase activity of 15-PGDH luciferase fusion cells” value [2] is reported as “increase luciferase activity”. For the same compound, the “PGE2 level in medium” value (A549 cells [3]; compound added 24 hours before IL1-beta, maintained next 26 hours) was “lower level of PGE2 produced”.

In the case of `CCCCC[C@H](O)/C=C/[C@H]1[C@H](O)CC(=O)[C@@H]1C/C=C\CCCC(=O)O` [PGE2], the “increase in number of bone marrow derived colonies” value [8] is reported as “lesser increase”.

In the case of `CCCC[S+]([O-])c1sc2nc(-c3nccs3)cc(-c3nccn3C)c2c1N` (centres unmarked) [SW209125, 2-(butylsulfinyl)-4-(1-methyl-1H-imidazol-2-yl)-6-(thiazol-2-yl)thieno[2,3-b]pyridin-3-amine], the “PGE2 induction compared with SW033291” value (A549 cells [3]) is reported as “increased activity relative to SW033291”.

In the case of `CCCC[S+]([O-])c1sc2nc(-c3cccs3)ccc2c1N` (centres unmarked) [SW206980], the half-life (Hepatocyte stability) is reported as 1.33 h, the “effect on CellTitre-Glo levels” value (A549 cells [9]) is reported as “No effect” and the Toxicity (cell culture) is reported as over 7.5 µM.
